Reference: patent publication US10897891B2, “Compositions and methods for prolonged cell storage” (Board of Regents, The University of Texas System, priority 2015, dated 2021)
“Also recorded” adds a separate entry of the source.

Tests used:
platelets [1] = experiment: Epinephrine induced platelet aggregation following cold storage (OD 690 nm, Experiment C); assay type: cell-based, human; conditions: 2% PEG-400, 5° C. for 7 days
Procedure: Platelet aggregation using epinephrine. Ten ml of 24 hr old platelet residual was derived from one platelet unit and split into two 5 ml aliquots in 50 ml tubes. One sample received 10% phosphate buffered saline (PBS) and one 10% PBS containing PEG400 such that the final PEG concentration was 2%. These samples were placed on a flat-bed rotator with a 1 inch stroke, at 70 cycles per min, at 5° C. for 7 days. 100 ul of these platelet suspensions were added to wells of a 96 well U bottom plate. Epinephrine 0.1 mg/ml (Pharmaceutical NDC 0409-4921-34-44-048-DK) was diluted with PBS and 100 ul was added to test wells to give a finial concentration of 10 mcg/ml. The plate was rotated overnight to allow aggregation. The extent of aggregation was read using an ELISA plate reader (Molecular Devises, Vmax) at 690 nm wavelength. Platelets, with and without PEG, were also aggregated by the addition of 10% H2O2. […] Table 3 presents additional cryoprotective agents scored for the effect on microscopic degranulation (20× high contrast lighting as above).
Fresh donor platelets were supplemented with PBS or PBS 2% PEG-400 as described in the methods, and incubated at 5° C. for 7 days. These control and test samples were then loaded side by side on a 96 well plate (ensuring that test and control reading would be made simultaneously). […]

platelets [2] = experiment: Cholesterol membrane capping with the fluorescent cholesterol probe filipin (Experiment F); assay type: cell-based, human; conditions: 5° C. overnight
Procedure: (Note 1: Stock solutions were prepared in DMSO that was rigorously dried with an equal volume of A-3 molecular sieve that had been regenerated at 300° C. overnight. The resultant filipin stock 25 mg/ml DMSO solution was prepared in a nitrogen atmosphere and frozen at −70° C. to limit water induced hydrolysis.)
Approximately 3 ml of residual pooled platelets were obtained after 72 hr at standard storage conditions. 100 ul of platelets were mixed with 100 ul of fresh filipin (300 ug/ml in PBS+10%, DMSO) in each of 12 wells of a 24 well cluster plate and incubated at room temperature for 35 min. (DMSO was included to assist with membrane loading of the highly insoluble filipin molecule.) All wells were then diluted by adding 2.5 ml of PBS and incubated another 15 min to dilute unbound filipin and allow removal of DMSO by dilution. The plate was next centrifuged at 2500 g for 20 min in a pre-warmed centrifuge at 22° C. All wells were gently aspirated and the PBS was replaced with 3 ml of control or test platelets as follows:
All wells were next incubated 20 min at room temperature to allow DMSO to equilibrate. (Note: the final DMSO concentration in the Control wells or the PEG-400 only wells would be 6 parts in 10,000 or 0.06%.) Next the plate was held at 5° C. overnight and in the morning centrifuged in a 5° C. equilibrated centrifuge at 2,500 g for 20 min. Cold 4% Formalin/PBS was carefully added and the plate returned to 5° C. for overnight incubation. At 18 hr the plate was allowed to fix again at room temperature in the dark for 4 hours. Subsequently the formalin was aspirated and the plate washed with 4 changes of 2 ml of PBS. Finally, excess fluid was removed and the wells were photographed with an inverted fluorescent microscope. Note 2: Filipin is rapidly photo-bleached with the UV, thus the light intensity was lowered with a barrier filter of ˜20% was used. This filter setting was used consistently for all photographs. All photographs were taken under the same camera conditions. No post photographic image alterations were made. […]

[3] = dogs; cited from earlier work
[4] = primates, for 11 weeks; cited from earlier work

Polyethylene glycol [PEG-400]
initial aggregation in the stored state (baseline OD 690 nm, no epinephrine) (platelets [1]): less initial aggregation in the stored state | aggregation response to epinephrine challenge (OD 690 nm) (platelets [1]; 0 vs 10 μg epinephrine): significant aggregation response to epinephrine | filipin clustering / cholesterol capping vs PBS control (platelets [2]; 2% PEG-400 in PBS): less filipin clustering; also recorded: less cholesterol capping | filipin clustering / cholesterol capping vs PBS control (platelets [2]; 4% PEG-400 in PBS): less cholesterol capping | filipin clustering / cholesterol capping vs PBS control (platelets [2]; 4% PEG-400 in PBS, listed as PEG): less filipin clustering | toxic endpoint [3]: ~8 g/kg | toxic endpoint for the whole animal [3]: 0.8% | tolerated level [4]: 0.4 % of body weight
